What was measured:
HCT116 cells = test: ELISA screening of phage clones on HCT116 cells (cellular ELISA); assay type: binding, human; conditions: HCT116, cell line panel
Procedure: (§1) The selected phages were further identified by ELISA screening. 1×10^4 cells were seeded into each well of 96-well ELISA plates (Falcon, Calif., USA) overnight and were fixed with 2% paraformaldehyde or methanol/acetone (1:1) for 10 min at RT. The plates were washed twice with PBS and were blocked with 1% BSA in PBS (w/v) for 30 min at RT. Then individual phage clones were added and incubated for 1 hr at RT. Following washing three times with PBS, the plates were incubated with horseradish peroxidase (HRP)-conjugated mouse anti-M13 phage antibody (GE Healthcare) at 1:2000 dilution for 1 hr at RT. The plates were washed three times with PBS again, and were subsequently incubated with the peroxidase substrate o-phenylenediamine dihydrochloride (OPD; Sigma) plus H2O2. The reaction was terminated by 3 N HCl, and the absorbance was measured using microplate reader (Model 680, BioRad) at 490 nm.

A498 = test: Cellular ELISA of phage clones; assay type: binding, human
Procedure: as §1, with “nm. To evaluate the binding activities of the three selected phage clones to various human cancer cell lines, cellular ELISA was performed to detect sixteen types of human cancer cell lines, including A498, HTB-10, B16-F10, SKOV3, PC-3, U2OS, 1112SK, […], SAS, H460, MIA Paca-2, HCT116, HUVAC, CL1-5, Mahlavu, and MDA-MB-231.” for “nm.”

CL1-5 = test: Cellular ELISA of phage clones; assay type: binding, human
Procedure: as §1, with “nm. To evaluate the binding activities of the three selected phage clones to various human cancer cell lines, cellular ELISA was performed to detect sixteen types of human cancer cell lines, including A498, HTB-10, B16-F10, SKOV3, PC-3, U2OS, 1112SK, […], SAS, H460, MIA Paca-2, HCT116, HUVAC, CL1-5, Mahlavu, and MDA-MB-231.” for “nm.”

H460 = test: Cellular ELISA of phage clones; assay type: binding, human
Procedure: as §1, with “nm. To evaluate the binding activities of the three selected phage clones to various human cancer cell lines, cellular ELISA was performed to detect sixteen types of human cancer cell lines, including A498, HTB-10, B16-F10, SKOV3, PC-3, U2OS, 1112SK, […], SAS, H460, MIA Paca-2, HCT116, HUVAC, CL1-5, Mahlavu, and MDA-MB-231.” for “nm.”

HTB-10 = test: Cellular ELISA of phage clones; assay type: binding, human
Procedure: as §1, with “nm. To evaluate the binding activities of the three selected phage clones to various human cancer cell lines, cellular ELISA was performed to detect sixteen types of human cancer cell lines, including A498, HTB-10, B16-F10, SKOV3, PC-3, U2OS, 1112SK, […], SAS, H460, MIA Paca-2, HCT116, HUVAC, CL1-5, Mahlavu, and MDA-MB-231.” for “nm.”

HUVAC = test: Cellular ELISA of phage clones; assay type: binding, human
Procedure: as §1, with “nm. To evaluate the binding activities of the three selected phage clones to various human cancer cell lines, cellular ELISA was performed to detect sixteen types of human cancer cell lines, including A498, HTB-10, B16-F10, SKOV3, PC-3, U2OS, 1112SK, […], SAS, H460, MIA Paca-2, HCT116, HUVAC, CL1-5, Mahlavu, and MDA-MB-231.” for “nm.”

MIA Paca-2 = test: Cellular ELISA of phage clones; assay type: binding, human
Procedure: as §1, with “nm. To evaluate the binding activities of the three selected phage clones to various human cancer cell lines, cellular ELISA was performed to detect sixteen types of human cancer cell lines, including A498, HTB-10, B16-F10, SKOV3, PC-3, U2OS, 1112SK, […], SAS, H460, MIA Paca-2, HCT116, HUVAC, CL1-5, Mahlavu, and MDA-MB-231.” for “nm.”

Mahlavu = test: Cellular ELISA of phage clones; assay type: binding, human
Procedure: as §1, with “nm. To evaluate the binding activities of the three selected phage clones to various human cancer cell lines, cellular ELISA was performed to detect sixteen types of human cancer cell lines, including A498, HTB-10, B16-F10, SKOV3, PC-3, U2OS, 1112SK, […], SAS, H460, MIA Paca-2, HCT116, HUVAC, CL1-5, Mahlavu, and MDA-MB-231.” for “nm.”

PC-3 = test: Cellular ELISA of phage clones; assay type: binding, human
Procedure: as §1, with “nm. To evaluate the binding activities of the three selected phage clones to various human cancer cell lines, cellular ELISA was performed to detect sixteen types of human cancer cell lines, including A498, HTB-10, B16-F10, SKOV3, PC-3, U2OS, 1112SK, […], SAS, H460, MIA Paca-2, HCT116, HUVAC, CL1-5, Mahlavu, and MDA-MB-231.” for “nm.”

[1] = target: recombinant α-enolase protein (Homo sapiens, UniProt P06733); test: Direct ELISA of HCT74 phage on recombinant α-enolase protein; assay type: binding; conditions: plate coated with 2 ug/mL α-enolase
Procedure: (A) Schematic diagram of the experimental design. (B) The binding characteristics of biotinylated pHCT74 peptide to HCT116 cells were evaluated by flow cytometry. (C) Affinity cross-linking of biotinylated pHCT74 peptide to the surface proteins of HCT116 cells, cross-linked proteins were cleaved from streptavidin dynabeads using 2-mercaptoethanol. […] (D) The peptide sequence (SEQ ID NO: 22) of target bands were deduced by tandem mass spectrometry. (E) Stable knockdown of ENO1 gene by introducing specific shRNA (ENO1-A, B, C and D shRNA) into HCT116 cells through infection with viral vectors. (F) The binding activity of HCT74 phage was reduced after α-enolase gene knockdown (G) The binding activity of HCT74 phage was enhanced when α-enolase was overexpressed. (H) Binding affinity of the HCT74 phage to recombinant α-enolase protein. The 96-well plate was pre-coated with 2 ug/mL α-enolase protein and incubated with increasing concentrations of HCT74 phage and then with HRP conjugated anti-M13 antibody. Data are presented as mean±standard deviation.
To further confirm alpha-enolase was the target proteins of the pHCT74 peptide, correlation between the binding activity of HCT74 phage and ENO1 expression was examined. We established stable cell lines expressing shRNAs targeting ENO1 gene (FIG. 4E) and tested the binding activity of HCT74 phage by flow cytometry. […]

recombinant α-enolase protein, sequence (P06733 whole entry): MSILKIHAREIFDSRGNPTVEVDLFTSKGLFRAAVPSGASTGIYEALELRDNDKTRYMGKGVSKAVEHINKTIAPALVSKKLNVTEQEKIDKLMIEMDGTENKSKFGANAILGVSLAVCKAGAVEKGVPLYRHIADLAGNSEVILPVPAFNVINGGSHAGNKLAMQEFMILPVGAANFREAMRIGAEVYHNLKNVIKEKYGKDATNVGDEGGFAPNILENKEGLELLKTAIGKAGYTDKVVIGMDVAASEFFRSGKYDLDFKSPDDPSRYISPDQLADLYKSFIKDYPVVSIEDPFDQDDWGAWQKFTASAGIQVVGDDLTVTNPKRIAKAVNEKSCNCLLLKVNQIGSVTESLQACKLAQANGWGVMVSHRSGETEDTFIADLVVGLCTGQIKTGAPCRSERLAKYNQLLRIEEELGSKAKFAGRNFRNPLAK

binding by cellular ELISA (A498): highly specific binding | binding by cellular ELISA (CL1-5): moderate binding | binding by cellular ELISA (H460): highly specific binding | binding by cellular ELISA (HTB-10): moderate binding | binding by cellular ELISA (HUVAC): highly specific binding | binding by cellular ELISA (MIA Paca-2): highly specific binding | binding by cellular ELISA (Mahlavu): highly specific binding | binding by cellular ELISA (PC-3): highly specific binding | specific binding to alpha enolase protein [1]: confirmed
Sequence: SSMDIVLRAPLM [HCT74]
binding by cellular ELISA (HCT116 cells): highly specific binding

From patent US9393316B2, “Cancer targeting peptides for enhancing anti-cancer drug delivery and therapeutic efficiencies” (priority 2014, dated 2016)
